Patent US9834808B2, “Methods for rapid antibiotic susceptibility testing” (SeLux Diagnostics, Inc., priority 2016, dated 2017)
Converted amounts (≈) assume the structure as drawn.

What was measured:
[1] = test system: clinical S. aureus strain; assay: CLSI overnight method MIC; details: Staphylococcus aureus
[2] = test system: S. aureus (QC strain 29213); assay: standard CLSI reference method MIC (fast-AST MICs stated to be similar); assay type: cell-based, Staphylococcus aureus
Protocol: Microorganism detection is then performed visually.
S. aureus (QC strain 29213) was cultured under standard sterile conditions in Mueller-Hinton (MH) broth overnight at 37° C. with shaking.
The microplates, each well containing 100 μL, were inoculated with the prepared antimicrobial dilutions and incubated at 37° C. for 3 hours, 45 minutes for determination using the present invention (the “fast-AST” technique). The “fast-AST” microplates were removed from the shaking incubator after 3 hours, 45 minutes and centrifuged for 2.5 minutes at 2500×g in order to pellet. The MH broth was then aspirated and 100 μL of 25 mM PBS was added to each well of both microplates. Then, 10 µL of the chemical moiety (here, Europium-Cryptate formulation) was added to each well (to 20 ng/well) and 10 μL of 0.005% Glutaraldehyde (as the signaling agent) was added to each well. The two microplates were then shaken at 300 rpm for 30 minutes. After, both plates were centrifuged for 2.5 minutes at 2500×g to pellet. The solution was aspirated and a wash of 200 μL PBS-tween was added to each well, followed by a centrifugation to pellet. After aspiration of solution, a second identical wash of 200 μL PBS-tween occurred, followed by a final centrifugation to pellet. 200 μL PBS-tween was added to each well. The plate was then read using time resolved fluorescence on a BioTek H1 plate reader.

[3] = test system: clinical resistant E. coli ("Clinical"); assay: fast-AST with Europium-Cryptate/glutaraldehyde, clinical strain; assay type: cell-based, Escherichia coli; details: 3 hours 45 minutes incubation, FIG. 17, FIG. 21
Protocol: (§1) Both Escherichia coli (QC strain, ATCC 25922) and clinical resistant E. coli (“Clinical”) were cultured under standard sterile conditions in Mueller-Hinton (MH) broth overnight at 37° C. with shaking. The E. coli concentration from the overnight culture was then set to 5×10^5 CFU/ml using the McFarland standard technique for optical density readings at 600 nm. Concurrently, two sterile 96-well microplates were prepared with serial dilutions of a specified antimicrobial (see below) and a no-antimicrobial (saline) control, all in MH broth. The microplates, each well containing 200 μL, were inoculated with the prepared antimicrobial dilutions and incubated at 37° C. for 3 hours, 45 minutes for determination using the present invention (the “fast-AST” technique). The “fast-AST” microplates were removed from the shaking incubator after 3 hours, 45 minutes and centrifuged for 2.5 minutes at 2500 g in order to pellet. The MH broth was then aspirated and 100 μL of water was added to each well of both microplates. Then, 10 μL of the chemical moiety (here, Europium-Cryptate formulation) was added to each well (to 20 ng/well) and 10 μL of 5% Glutaraldehyde (as the signaling agent) was added to each well. The two microplates were then shaken at 300 rpm for 30 minutes. […] The plate was then read using time resolved fluorescence on a BioTek H1 plate reader.

[4] = test system: Escherichia coli (QC strain, ATCC 25922) and clinical resistant E. coli ("Clinical"); assay: fast-AST with Europium-Cryptate/glutaraldehyde, QC strain compared with clinical strain; assay type: cell-based; details: 3 hours 45 minutes incubation, FIG. 16 to FIG. 23
Protocol: as §1

[5] = test system: ampicillin-resistant E. coli (ATCC 39936); assay: fluorescent nanoparticle signaling agent assay (free signaling agents in filtrate); assay type: cell-based, Escherichia coli; details: 100 μg/ml ampicillin, 1.5 hours, 0.2 μm filtrate; FIG. 41
Protocol: (§2) Both Escherichia coli (ATCC 11303) and ampicillin-resistant E. coli (ATCC 39936) were cultured under standard sterile conditions in LB broth at 37° C. Concentrations were determined by measuring absorbance at 600 nm (McFarland), and a concentration of 5×10^5 CFU/ml was set by dilution. Ampicillin was then weighed into sterile water and added in appropriate concentrations to sterile 3 mL microfuge tubes. Bacteria and nanoparticles at a concentration of 8×10^8 nanoparticles/ml were both added to these ampicillin-coated sterile microfuge tubes. The tubes were then capped and placed at 37° C. for 1.5 hours with continuous shaking, after which they were opened and each was passed through a 0.2 μm filter. Next, 100 μL of each filtrate was added to a well of a 96-well plate and 150 μL of a development solution (5% tetramethylammonium hydroxide in ethanol) was added to each well. After 5 minutes the plate was read at 490 nm excitation/530 nm emission in a SpectraMax M2 microplate reader (Molecular Devices).
(§3) An assay for free signaling agents, which are not associated with intact bacteria, was performed after intact bacteria were removed by filtration through a 0.2 μm filter.

[6] = test system: Escherichia coli (ATCC 11303); assay: as above; assay type: cell-based
Protocol: as §2, §3

[7] = test system: Pseudomonas aeruginosa (ATCC strain 27853); assay: fast-AST MIC determination (HRP-conjugated anti-P. aeruginosa antibody signaling agent); assay type: cell-based; details: ATCC27853, 3.5 hours incubation, susceptible strain, FIG. 6, FIG. 7
Protocol: (§4) Similarly, a culture of Pseudomonas aeruginosa (ATCC strain 27853) was grown using MH broth overnight at 37° C. with vigorous shaking. […] The data shown in FIG. 6 depicts from the 5 minute point after the start of incubation with detection solution. […] The MIC determined by both techniques is the same: 4 μg/ml.
(§5) The MIC for the resistant P. aeruginosa strain, ATCC BAA-2108, was determined similarly. The same 96-well microplate was used for both strains, with 48 wells dedicated to each strain.

[8] = test system: Pseudomonas aeruginosa (ATCC strain 27853); assay: standard overnight growth, OD600 control MIC determination; assay type: cell-based; details: ATCC27853, overnight (>12 hours) incubation, FIG. 6
Protocol: as §4

[9] = test system: resistant P. aeruginosa strain, ATCC BAA-2108; assay: fast-AST MIC determination, resistant strain; assay type: cell-based; details: Pseudomonas aeruginosa, ATCCBAA2108, FIG. 7
Protocol: as §4, §5

[10] = standard CLSI reference method, fast-AST MICs similar, FIG. 24 to FIG. 26

CN[C@H](CC(C)C)C(=O)N[C@H]1C(=O)N[C@@H](CC(N)=O)C(=O)N[C@H]2C(=O)N[C@H]3C(=O)N[C@H](C(=O)N[C@H](C(=O)O)c4cc(O)cc(O)c4-c4cc3ccc4O)[C@H](O)c3ccc(c(Cl)c3)Oc3cc2cc(c3O[C@@H]2O[C@H](CO)[C@@H](O)[C@H](O)[C@H]2O[C@H]2C[C@](C)(N)[C@H](O)[C@H](C)O2)Oc2ccc(cc2Cl)[C@H]1O [Vancomycin]
MIC [1]: 8 µg/mL (≈ 5.52 µM)
MIC ([2]; Staphylococcus aureus): 0.5 to 2 µg/mL (≈ 0.345 to 1.38 µM)

CC1(C)S[C@@H]2[C@H](NC(=O)[C@H](N)c3ccccc3)C(=O)N2[C@H]1C(=O)O [ampicillin]
susceptibility call of the clinical strain [3]: resistant
MICs of QC strain compared with clinical resistant strain [4]: dissimilar MICs
fluorescent signal of free signaling agent [5]: low fluorescent signals
fluorescent signal of free signaling agent ([6]; 100 μg/ml ampicillin, 1.5 hours, 0.2 μm filtrate, FIG. 41): significant increase in fluorescence
MIC ([6]; Escherichia coli, ATCC11303, varying ampicillin concentrations, fluorescent nanoparticle assay, FIG. 42): ~15 µg/mL (≈ 42.9 µM)

CC(C)(O/N=C(\C(=O)N[C@@H]1C(=O)N2C(C(=O)[O-])=C(C[n+]3ccccc3)CS[C@H]12)c1csc(N)n1)C(=O)O [ceftazidime]
MIC [7]: 4 µg/mL (≈ 7.32 µM)
MIC [8]: 4 µg/mL (≈ 7.32 µM)

C[C@@H](O)[C@H]1C(=O)N2C(C(=O)O)=C(SCCN=CN)C[C@H]12 [imipenem]
MIC [7]: 2 µg/mL (≈ 6.68 µM)
MIC [9]: 32 µg/mL (≈ 107 µM)

Penicillin
MIC [2, 10]: 0.25 to 2 µg/mL

Teicoplanin
MIC [2, 10]: 0.25 to 1 µg/mL
